Results published in paper PMC10005301, “Prediction of the n-Octanol/Water Partition Coefficients of Basic Compounds Using Multi-Parameter QSRR Models Based on IS-RPLC Retention Behavior in a Wide pH Range” (Molecules, 2023).
Like-named read-outs stand apart in the source and are kept apart here.

Experiments:
[1] = Text: (§1) The retention behavior of the 42 basic compounds (Table 1) were investigated at different ratios of methanol (φ = 0.7–0.1, the interval was 0.1 or 0.05 based on the retention of the investigated solutes). The logk values were plotted versus φ for each solute at pH 7.0, pH 8.0, pH 9.0, and pH 10.0. […] The logD values of the model compounds and verification compounds calculated using Equation (S3) based on the logP and pH values are also listed in Table 1.
(§2) At each pH, the retention time (tR) of every analyte was determined for at least four different volume fractions (φ) of methanol. All the tR values of the solutes were obtained by averaging the results of at least three independent injections. The tR value was corrected using dual-point retention time correction (DP-RTC). For a detailed description of the process, refer to our previous work. For the different hydrophobicities of the studied compounds, benzene, toluene, and benzyl alcohol were used as anchor compounds in the DP-RTC method. The dead time t0 was determined using uracil. For each solute, the logarithm of k was plotted against φ, and logkw was obtained using the Equation (S1). The logD values of the model compounds were calculated using Equation (S3), and the logD–logkw models were established with Equation (S4). The statistical analysis for the regression model was accomplished using Origin 9.4. […]
(§3) Where, k is the capacity factor, φ is the volume fraction of organic modifier in the mobile phase, and S is the constant obtained by linear regression in the equations. […]
and logkw, which is usually called Collander equation [25 ]. lo g lo g wPm k n= + (S2)
Where, m and n are constants obtained by linear regression.
The Eqs. (S1) and (S2) are the basis for the determination of logP by revered- phase liquid chromatography (RPLC) method. For dissociative solutes, it has been confirmed by many studies that the logD calibrated from logP has a better linear correlation with logkw than logP.
For basic compounds, the logD value can be calibrated from Eq. (S3), and the Collander equation can be rewritten into Eq. (S4). log log( )D − −+ −+= + ++P […]
lo g ' lo g 'Dm k n= +w (S4)
Where, pKa1, pKa2 , … p Kan are the dissociation constants of basic compounds of corresponding acids in the mobile phase, pH is the pH value of mobile phase, m′ and n′ are fitting parameters. Han et al. pointed out that although mobile phase pH and pKa of solutes will change along with the varied organic modifier fraction, the difference between a couple of relevant pH and pKa is a constant. Therefore, the used pH and pKa in this paper were both the values obtained at 100% aqueous phase. […]

[2] = ref database module of ACD/Labs software, cited from earlier work
[3] = set-up: method as in UFZ-LSER database; settings: hydrogen bonding parameter B; ref UFZ-LSER database; cited from earlier work
[4] = ref database module of ACD/Labs software; cited from earlier work
[5] = IS-RPLC retention on silica-based C18 column, logkw by linear solvent strength model; format: physicochemical
Protocol: as §1
The column temperature was set at 30 °C. Methanol and 20 mmol/L ammonium phosphate buffer (pH = 7.0, 8.0, 9.0, 10.0) was used as the mobile phase to perform isocratic elution. The injection volume was 10 µL and the detection wavelength for each eluted compound was set at its optimum absorption wavelength.
as §2, §3
The Eqs. (S1) and (S2) are the basis for the determination of logP by revered- phase liquid chromatography (RPLC) method. For dissociative solutes, it has been confirmed by many studies that the logD calibrated from logP has a better linear correlation with logkw than logP. […]

[6] = logD determined by multi-parameter QSRR models from IS-RPLC logkw; settings: IS-RPLC retention (logkw)
Protocol: Multi-parameter QSRR models including logD, logkw, ne, A, and B were established using the multiple linear regression (MLR) method. In the process of linear fitting, ne, A, B, and their different combinations were introduced to optimize the models.
The logD values reported in the literature for these four compounds were calculated using Equation (S3) with corresponding pKa, logP, and pH values.
At each pH, the retention time (tR) of every analyte was determined for at least four different volume fractions (φ) of methanol. All the tR values of the solutes were obtained by averaging the results of at least three independent injections. The tR value was corrected using dual-point retention time correction (DP-RTC). For a detailed description of the process, refer to our previous work. For the different hydrophobicities of the studied compounds, benzene, toluene, and benzyl alcohol were used as anchor compounds in the DP-RTC method. The dead time t0 was determined using uracil. For each solute, the logarithm of k was plotted against φ, and logkw was obtained using the Equation (S1). The logD values of the model compounds were calculated using Equation (S3), and the logD–logkw models were established with Equation (S4). The statistical analysis for the regression model was accomplished using Origin 9.4.

[7] = pH 7.0, calculated with literature logP, pKa and pH, Equation (S3)
[8] = pH 8.0, calculated with literature logP, pKa and pH, Equation (S3)
[9] = pH 9.0, calculated with literature logP, pKa and pH, Equation (S3)
[10] = pH 10.0, calculated with literature logP, pKa and pH, Equation (S3)
[11] = pH 7.0, methanol/20 mmol/L ammonium phosphate buffer, Welch Xtimate C18, 30 °C, 100% aqueous extrapolation
[12] = pH 8.0, methanol/20 mmol/L ammonium phosphate buffer, Welch Xtimate C18, 30 °C, 100% aqueous extrapolation
[13] = pH 9.0, methanol/20 mmol/L ammonium phosphate buffer, Welch Xtimate C18, 30 °C, 100% aqueous extrapolation
[14] = pH 10.0, methanol/20 mmol/L ammonium phosphate buffer, Welch Xtimate C18, 30 °C, 100% aqueous extrapolation

SMILES	logDpH 7.0 ([1]; pH 7)	logDpH 8.0 ([1]; pH 8)	logDpH 9.0 ([1]; pH 9)	logDpH 10.0 ([1]; pH 10)	logP ([2]; n-octanol/water)	B [3]	pKa1 [4]	logkw-pH 7.0 ([5]; pH 7)	logkw-pH 8.0 ([5]; pH 8)	logkw-pH 9.0 ([5]; pH 9)	logkw-pH 10.0 ([5]; pH 10)	logDpH 7.0 [1, 7]	logDpH 8.0 [1, 8]	logDpH 9.0 [1, 9]	logDpH 10.0 [1, 10]	logkw-pH 7.0 [5, 11]	logkw-pH 8.0 [5, 12]	logkw-pH 9.0 [5, 13]	logkw-pH 10.0 [5, 14]	other results
Nc1ccc(N)cc1 [1,4-Benzenediamine]	−0.38	−0.31	−0.30	−0.30	−0.30	1.30	6.31	−0.39	−0.35	−0.17	−0.04	–	–	–	–	–	–	–	–	pKa2 [4]: 2.97
Cc1ccc(N)c(C)c1 [2,4-Dimethylaniline]	1.68	1.68	1.68	1.68	1.68	0.95	4.70	1.92	1.98	2.00	2.04	–	–	–	–	–	–	–	–	–
Cc1ccnc(C)c1 [2,4-Dimethylpyridine]	–	–	–	–	1.65	0.63	6.58	–	–	–	–	1.51	1.63	1.65	1.65	1.76	1.85	1.88	1.96	–
Cc1cccc(C)n1 [2,6-Dimethylpyridine]	1.52	1.66	1.68	1.68	1.68	0.61	6.65	–	–	–	–	–	–	–	–	1.68	1.76	1.78	1.81	–
Cc1ccnc(N)c1 [2-Amino-4-methylpyridine]	–	–	–	–	0.89	0.95	7.38	–	–	–	–	0.36	0.80	0.88	0.89	1.00	1.16	1.28	1.32	–
CCc1ccccn1 [2-Ethylpyridine]	–	–	–	–	1.67	0.61	–	–	–	–	–	2.05	2.05	2.05	2.05	1.74	1.79	1.80	1.90	logP ([2]; Table 4, verification compounds): 1.67; chromatographic logD ([6]; pH 7): 1.62; chromatographic logD ([6]; pH 8): 1.62; chromatographic logD ([6]; pH 9): 1.6; chromatographic logD ([6]; pH 10): 1.65
COc1ccccc1N [2-Methoxyaniline]	0.95	0.95	0.95	0.95	0.95	0.99	4.53	1.38	1.41	1.42	1.49	–	–	–	–	–	–	–	–	–
CCOc1ccc(N)cc1 [4-Ethoxyaniline]	1.23	1.24	1.24	1.24	1.24	0.95	–	1.45	1.49	1.50	1.60	–	–	–	–	–	–	–	–	–
CC(C)c1ccc(N)cc1 [4-Isopropylaniline]	–	–	–	–	2.23	0.92	4.85	–	–	–	–	2.23	2.23	2.23	2.23	2.42	2.57	2.59	2.65	–
COc1ccc(N)cc1 [4-Methoxyaniline]	0.79	–	0.80	0.80	0.80	1.05	5.36	1.05	0.99	1.07	1.11	–	0.80	–	–	–	–	–	–	–
NCc1ccccc1 [Benzylamine]	–	–	–	–	–	–	9.35	–	–	–	–	–	–	–	–	0.36	0.49	1.05	1.42	–
CN(C)c1ccccc1 [N, N-Dimethylaniline]	–	–	–	–	–	0.96	5.07	2.18	2.37	2.39	2.44	–	–	–	–	–	–	–	–	–
